# “Also recorded” adds a separate entry of the source. Read-outs that look alike come from different tables or passages of the source.
# Experiments:
# CYP1A2 = test system: CYP1A2; parameters: method as in PMID 26353895; conditions: cited from earlier work
# [1] = test system: breast cancer resistance protein (BCRP); conditions: not told; cited from earlier work
# CYP3A = test system: CYP3A; parameters: method as in PMID 26353895; conditions: cited from earlier work
# [2] = Plasma pharmacokinetics, Phase I open‐label two‐group fixed‐sequence drug‐drug interaction study; conditions: for C min / concentration at 23.9 h / concentration at 24 h / Cmax: mean (SD); for T last / Tmax: median (range); for AUC0‐24 h LSM ratio / C min LSM ratio / Cmax LSM ratio: point estimate (90% CI); for concentration at 23.9 h / concentration at 24 h / Cmax / Tmax: human, plasma, oral; for concentration at 23.9 h / concentration at 24 h: C last; for Tmax: T max
# Text: This was an open‐label, two‐group, fixed‐sequence study conducted at a single study center in Rennes, France (Biotrial). A two‐group, fixed‐sequence study design was chosen as this was deemed to be the most efficient way to evaluate the effect of simeprevir with/without odalasvir on AL‐335; and vice versa (Group 1) and the effect of odalasvir with/without simeprevir on AL‐335; and vice versa (Group 2). Thus, this study design had the potential to gather both 2‐way and 3‐way DDIs. For both groups, the study consisted of a screening period, a study period, and two follow‐up visits. The study was authorized by the French National Agency for the Safety of Medicine and Health Products (ANSM) and was approved by an Independent Ethics Committee (Comité de Protection des Personnes [CPP] Ouest VI, Brest, France; Reference CPP Ouest 6–CPP 888/MS1), and was conducted in accordance with the principles of the Declaration of Helsinki and International Conference on Harmonization. All subjects provided written informed consent to participate. Drug and molecular target nomenclature in this manuscript conforms to the British Journal of Pharmacology's Concise Guide to Pharmacology 2017/18.19
# Subjects in Group 1 received simeprevir 150 mg QD on days 4‐23, odalasvir 150 mg (loading dose) on day 14, odalasvir 50 mg QD on days 15‐23, and AL‐335 800 mg QD on days 1‐3, 11‐13, and 21‐23. Subjects in Group 2 received odalasvir 150 mg (loading dose) on day 4, odalasvir 50 mg QD on days 5‐23, simeprevir 150 mg QD on days 14‐23, and AL‐335 800 mg QD on days 1‐3, 11‐13, and 21‐23. […] A minimum of 10 days was considered sufficient for both odalasvir and simeprevir to reach steady‐state.
# Subjects were assigned sequentially to Group 1 then to Group 2 after confirming eligibility.
# As this was an […] pharmacokinetic study, blood samples for pharmacokinetic analysis were collected predose and at 0.25, 0.5, 1, 2, 3, 4, 6, 8, 10, 12, and 24 hours postdose on days 3, 13, and 23 for determination of AL‐335, ALS‐022399, and ALS‐022227 plasma concentrations (Groups 1 and 2). For simeprevir, blood samples for determination of simeprevir plasma concentrations were taken at the same time points but on days 10, 13, 20, and 23 (Group 1) or days 20 and 23 (Group 2). Blood samples for the determination of odalasvir plasma concentrations were collected predose and at 1, 3, 4, 5, 6, 7, 8, 9, 10, 12, 16, and 24 hours postdose on days 20 and 23 (Group 1) or days 10, 13, 20, and 23 (Group 2), with two further samples also collected on the day 7 and day 28 follow‐up assessments (both groups).
# Plasma concentrations of AL‐335, ALS‐022399, ALS‐022227, odalasvir, and simeprevir were determined using validated liquid chromatography‐tandem mass spectrometry methods. Dichlorvos solution was added to blood samples from AL‐335‐treated subjects to stabilize AL‐335 and its metabolites (25 μL of 5 mmol/L dichlorvos into 1 mL blood). The lower limit of quantification was 1 ng/mL, 2 ng/mL, and 5 ng/mL for AL‐335, ALS‐022399, and ALS‐022227, respectively, 1 ng/mL for odalasvir, and 2 ng/mL for simeprevir.
# Pharmacokinetic analyses were performed on all subjects with available profiles who received at least one dose of study drug without any protocol deviation affecting pharmacokinetic evaluation. […] Secondary parameters were last observed plasma concentration, apparent elimination half‐life, time of the maximum observed plasma concentration (T max), and time to last measurable plasma concentration (T last).
# OATP1B1/1B3 = conditions: cited from earlier work
# [3] = Group 1 Day 13, SMV + AL‐335 versus SMV alone
# [4] = Group 1 Day 20, SMV + ODV versus SMV alone
# [5] = Group 1 Day 23, SMV + AL‐335 + ODV versus SMV alone
# [6] = Group 1 Day 23, SMV + AL‐335 + ODV
# [7] = Group 2 Day 23, SMV + AL‐335 + ODV
smiles,measurement,setting,value
COc1ccc2c(O[C@@H]3C[C@H]4C(=O)N[C@]5(C(=O)NS(=O)(=O)C6CC6)C[C@H]5/C=C\CCCCN(C)C(=O)[C@@H]4C3)cc(-c3nc(C(C)C)cs3)nc2c1C [simeprevir],CYP1A2 inhibition,CYP1A2,mild but not clinically relevant inhibitor
same,BCRP substrate / inhibitor status,[1],substrate and inhibitor
same,CYP3A inhibition,CYP3A,mild inhibitor of intestinal (not hepatic) CYP3A
same,effect of AL‐335 on pharmacokinetics,[2]; AL‐335 800 mg QD coadministered,no effect; also recorded: did not alter; also recorded: no impact
same,C min,"[2]; Group 1 Day 10, SMV alone",833 (856) ng/mL
same,T last,"[2]; Group 1 Day 10, SMV alone",23.9 (23.9‐24.0) h
same,C min,"[2]; Group 1 Day 13, SMV + AL‐335",857 (1129) ng/mL
same,T last,"[2]; Group 1 Day 13, SMV + AL‐335",23.9 (23.9‐24.0) h
same,AUC0‐24 h LSM ratio,[2]; [3],0.93 (0.83‐1.05)
same,C min LSM ratio,[2]; [3],0.88 (0.76‐1.02)
same,Cmax LSM ratio,[2]; [3],0.89 (0.79‐1.00)
same,AUC0‐24 h LSM ratio,[2]; [4],1.76 (1.53‐2.01)
same,C min LSM ratio,[2]; [4],1.41 (1.01‐1.99)
same,Cmax LSM ratio,[2]; [4],1.66 (1.36‐2.01)
same,C min,"[2]; Group 1 Day 20, SMV + ODV",1446 (2064) ng/mL
same,T last,"[2]; Group 1 Day 20, SMV + ODV",23.9 (23.9‐24.0) h
same,AUC0‐24 h LSM ratio,[2]; [5],1.60 (1.38‐1.85)
same,C min LSM ratio,[2]; [5],1.82 (1.52‐2.19)
same,Cmax LSM ratio,[2]; [5],1.43 (1.23‐1.66)
same,C min,[2]; [6],1910 (2441) ng/mL
same,T last,[2]; [6],24.0 (24.0‐24.0) h
same,C min,"[2]; Group 2 Day 20, SMV + ODV",1274 (1035) ng/mL
same,T last,"[2]; Group 2 Day 20, SMV + ODV",23.9 (23.8‐24.1) h
same,C min,[2]; [7],1847 (2313) ng/mL
same,T last,[2]; [7],24.0 (24.0‐24.1) h
same,concentration at 23.9 h,"[2]; 150 mg, Group 1 Day 10, SMV alone",981 ng/mL
same,concentration at 23.9 h,"[2]; Group 1 Day 13, SMV + AL‐335",1020 ng/mL
same,concentration at 23.9 h,"[2]; Group 1 Day 20, SMV + ODV",2340 ng/mL
same,concentration at 24 h,[2]; [6],2390 ng/mL
same,concentration at 23.9 h,"[2]; Group 2 Day 20, SMV + ODV",2140 ng/mL
same,concentration at 24 h,[2]; [7],2590 ng/mL
same,Cmax,"[2]; Group 1 Day 10, SMV alone",2960 ng/mL
same,Cmax,"[2]; Group 1 Day 13, SMV + AL‐335",2760 ng/mL
same,Cmax,"[2]; Group 1 Day 20, SMV + ODV",5220 ng/mL
same,Cmax,[2]; [6],4740 ng/mL
same,Cmax,"[2]; Group 2 Day 20, SMV + ODV",4530 ng/mL
same,Cmax,[2]; [7],4950 ng/mL
same,Tmax,"[2]; Group 1 Day 10, SMV alone",6 h
same,Tmax,"[2]; Group 1 Day 13, SMV + AL‐335",6 h
same,Tmax,"[2]; Group 1 Day 20, SMV + ODV",6 h
same,Tmax,[2]; [6],6 h
same,Tmax,"[2]; Group 2 Day 20, SMV + ODV",6 h
same,Tmax,[2]; [7],8 h
same,difference in T max,[2]; simeprevir coadministered with odalasvir,No clinically relevant difference
same,OATP1B1/3 substrate / inhibitor status,OATP1B1/1B3,clinically confirmed OATP1B1 inhibitor
same,OATP1B1/3 substrate / inhibitor status,OATP1B1/1B3; listed as Simeprevir,substrate and inhibitor

# — publication PMC5927802, “Pharmacokinetics, safety, and tolerability of the 2‐ and 3‐direct‐acting antiviral combination of AL‐335, odalasvir, and simeprevir in healthy subjects” (Pharmacology Research & Perspectives, 2018)
